According to publication PMC6271085, “Synthesis and Cytotoxic Evaluation of a Series of 2-Amino-Naphthoquinones against Human Cancer Cells” (Molecules, 2014):
Values after ≈ are worked out from the molar mass of the structure shown. Values joined by “and” are separate entries in the source; they are usually repeats but may differ in a detail not shown here. Identical values can stand only once. Like-named read-outs stand apart in the source and are kept apart here.

How the values were obtained:
[1] = tested on: HCT-8 (colon) cells; assay: MTT cytotoxicity assay, HCT-8; format: cell-based; conditions: Homo sapiens; for IC50: HCT-8, 72 h, HCT-8, 72h exposure; for inhibition at 5 µg/mL: HCT-8, 5 µg/mL, 72 h, MTT, read-out: Percentage of inhibition of cell growth (GI%), average
Text: (§1) This experiment evaluated the cytotoxicity of aminonaphthoquinones (ANPQs) against human cancer cells, in vitro. This analysis is part of an initial screening for determination of the potential antitumor of these samples. The human cancer cell strains used were SF-295 (glioblastoma-human), MDAMB-435 (melanoma), HCT-8 (colon), HCT-116 (colon), HL-60 (leukemia), OVCAR-8 (ovarian cancer), NCI-H358M (human bronchoalveolar lung carcinoma) and PC3-M (highly metastatic prostate cancer cell line). All cancer cells were provided by the National Cancer Institute (Rockville, MD, USA) and were cultured in RPMI 1640 supplemented with 10% fetal bovine serum and 1% antibiotics, maintained at 37 °C and atmosphere containing 5% CO2. The peripheral blood mononuclear cells (PBMC) were isolated by gradient of density (Ficoll-Hypaque) and cultivated in RPMI 1640 medium, supplemented with bovine foetal serum (20%), antibiotic (1%) and phytohemagglutinin (4%). The cells were maintained at 37 °C and atmosphere containing 5% CO2.
(§2) The different samples of ANPQs were diluted in pure sterile DMSO. The substances were tested at a concentration of 5 µg·mL^−1. In order to determine the IC50 the substances were tested at increasing concentrations in serial dilutions (5–0.010 µg·mL^−1).
(§3) Analysis of cytotoxicity by the MTT method has been used in the screening program at the National Cancer Institute of the United States (NCI), which tests over 10,000 samples per year. It is a rapid, sensitive and inexpensive test. It was first described by Mosman as having the ability to analyze the viability and the metabolic state of cells. It is a colorimetric analysis based on conversion of the salt 3-(4,5-dimethyl-2-thiazole)-2,5-diphenyl-2H-tetrazolium bromide (MTT) to formazan-blue by the mitochondrial enzymes found only in metabolically active cells. The study of the cytotoxicity by MTT method allows easily defining the cytotoxicity but not the mechanism of action.
(§4) The cells were plated at a concentration of 0.1 × 10^6 cell mL^−1 to OVCAR-8, NCI-H358M, PC3-M, SF-295 and MDA-MB435 strains, 0.7 × 10^5 cell mL^−1 to HCT-8 and HCT-116 strains, 0.3 × 10^6 to HL-60 strain, 1.0 × 10^6 cell mL^−1 to PBMC. The plates were incubated for 72 h at 5% CO2 at 37 °C. After, they were centrifuged and the supernatant removed. Then the solution of MTT (tetrazolium salt, 150 µL) was added, and the plates were incubated for 3 h. The absorbance was read after dissolving the precipitate with 150 µL of pure DMSO in a spectrophotometer plate at 595 nm.

[2] = tested on: MDAMB-435 cells; assay: MTT cytotoxicity assay, MDAMB-435; format: cell-based; conditions: Homo sapiens; for IC50: MDA-MB-435, 72 h, MDAMB-435, 72h exposure; for inhibition at 5 µg/mL: MDA-MB-435, MDAMB-435, 5 µg/mL, 72 h, MTT, read-out: Percentage of inhibition of cell growth (GI%), average
Text: as §1, §2, §3, §4

[3] = tested on: SF-295 (glioblastoma) cells; assay: MTT cytotoxicity assay, SF-295; format: cell-based; conditions: Homo sapiens; for IC50: SF-295, 72 h, SF-295, 72h exposure; for inhibition at 5 µg/mL: SF-295, 5 µg/mL, 72 h, MTT, read-out: Percentage of inhibition of cell growth (GI%), average
Text: as §1, §2, §3, §4

[4] = tested on: HL-60 (leukemia) cells; assay: MTT cytotoxicity assay, HL-60; format: cell-based; conditions: Homo sapiens; HL-60, 72h exposure
Text: as §1, §2, §3, §4

[5] = tested on: HCT-116 (colon) cells; assay: MTT cytotoxicity assay, HCT-116; format: cell-based; conditions: Homo sapiens; HCT-116, 72h exposure
Text: as §1, §2, §3, §4

[6] = tested on: OVCAR-8 (ovarian cancer) cells; assay: MTT cytotoxicity assay, OVCAR-8; format: cell-based; conditions: Homo sapiens; OVCAR-8, 72h exposure
Text: as §1, §2, §3, §4

[7] = tested on: NCI-H358M (bronchoalveolar lung carcinoma) cells; assay: MTT cytotoxicity assay, NCI-H358M; format: cell-based; conditions: Homo sapiens, 72h exposure
Text: as §1, §2, §3, §4

[8] = tested on: PC3-M (prostate) cells; assay: MTT cytotoxicity assay, PC3-M; format: cell-based; conditions: Homo sapiens, PC-3M, 72 h, 72h exposure
Text: as §1, §2, §3, §4

[9] = MTT cytotoxicity assay, PBMC; format: cell-based; conditions: peripheral blood mononuclear cells (PBMC); PBMC normal cells, 72h exposure
Text: as §1, §2, §3, §4

[10] = tested on: HCT-8 (colon) cells; parameters: method as in PMID 16042338; conditions: cited from earlier work
[11] = tested on: HL-60 (leukemia) cells; parameters: method as in PMID 16042338; conditions: cited from earlier work

| melting point | Compound | IC50 [1] | IC50 [2] | IC50 [3] | IC50 [4] | IC50 [5] | IC50 [6] | IC50 [7] | IC50 [8] | IC50 at 72 h [9] | IC50 [10] [µg/mL] | IC50 [11] [nM] | inhibition at 5 µg/mL [1] [%] | inhibition at 5 µg/mL [2] [%] | inhibition at 5 µg/mL [3] [%] |
| --- | --- | --- | --- | --- | --- | --- | --- | --- | --- | --- | --- | --- | --- | --- | --- |
| – | COc1cccc2c1C(=O)c1c(O)c3c(c(O)c1C2=O)C[C@@](O)(C(=O)CO)C[C@@H]3O[C@H]1C[C@H](N)[C@H](O)[C@H](C)O1 [Dox, Doxorubicin, reference compound] | 0.07 µg/mL and 130 nM | 0.48 µg/mL and 830 nM | 0.23 µg/mL | 0.02 µg/mL and 30 nM | 0.01 µg/mL and 20 nM | 0.26 µg/mL (≈ 0.478 µM) | 0.9 µg/mL and 1.65 µM | 0.2 µg/mL and 360 nM | 0.23 µg/mL and 420 nM | – | – | – | – | – |
| – | Cc1cc(=O)c2c(O)c([C@@H]3O[C@H](CO)[C@@H](O)[C@H](O)[C@H]3O)c(O)cc2o1 [biflorin] | – | – | – | – | – | – | – | – | – | 0.88 (≈ 2.48 µM) | 1950 | – | – | – |
| – | O=C(O)CNC1=CC(=O)c2ccccc2C1=O [compound 2, 2N-(1,4-Dioxo-1,4-dihydronaphthalen-2-yl)acetic acid] | 0.89 µg/mL and 3.84 µM | 1.21 µg/mL and 5.23 µM | 0.57 µg/mL and 2.46 µM | 0.7 µg/mL and 3.02 µM | 1.31 µg/mL and 5.66 µM | 3.89 µg/mL and 16.8 µM | > 5 µg/mL and > 21.6 µM | > 5 µg/mL and > 21.6 µM | 5.51 µg/mL and 23.8 µM | – | – | 81.7 | 100 | 81.1 |
| 198 to 200 °C | O=C(O)CCNC1=CC(=O)c2ccccc2C1=O [compound 3, 3N-(1,4-Dioxo-1,4-dihydronaphthalen-2-yl)propanoic acid] | – | – | – | – | – | – | – | – | – | – | – | 56 | 26.4 | 56 |
| 164 to 167 °C (dec.) | O=C1C=C(N2CCC[C@H]2C(=O)O)C(=O)c2ccccc21 [compound 4, N-(1,4-Dioxo-1,4-dihydronaphthalen-2-yl)-L-proline] | – | – | – | – | – | – | – | – | – | – | – | 59.1 | 36.7 | 59.3 |
| – | C[C@H](NC1=CC(=O)c2ccccc2C1=O)C(=O)O [compound 5, N-(1,4-Dioxo-1,4-dihydronaphthalen-2-yl)-L-alanine] | 3380 nM | 1990 nM | 2560 nM | 1.05 µg/mL and 4.27 µM | 1.11 µg/mL and 4.52 µM | 2.36 µg/mL and 9.61 µM | 0.9 µg/mL and 3.36 µM | 1.61 µg/mL (≈ 6.57 µM) | 7.34 µg/mL and 29.9 µM | – | – | 84.1 | 100 | 83.8 |
| – | O=C1C=C(N[C@@H](Cc2ccccc2)C(=O)O)C(=O)c2ccccc21 [compound 6, N-(1,4-Dioxo-1,4-dihydronaphthalen-2-yl)-L-phenylalanine] | 1.59 µg/mL and 4.94 µM | 1.46 µg/mL and 4.53 µM | 0.65 µg/mL and 2.01 µM | 1.31 µg/mL and 4.07 µM | 2.15 µg/mL and 6.67 µM | 1.87 µg/mL and 5.81 µM | 0.82 µg/mL and 2.54 µM | 1.7 µg/mL and 5.28 µM | 12.2 µg/mL and 37.8 µM | – | – | 86.1 | 100 | 86.1 |
| 93 to 95 °C | CCOC(=O)CNC1=CC(=O)c2ccccc2C1=O [compound 7, Ethyl 2N-(1,4-dioxo-1,4-dihydronaphthalen-2-yl)acetate] | 1.84 µg/mL and 7.09 µM | 1.33 µg/mL and 5.12 µM | 0.83 µg/mL and 3.19 µM | 1.24 µg/mL and 4.77 µM | 2.13 µg/mL and 8.2 µM | 2 µg/mL and 7.7 µM | 0.64 µg/mL and 2.46 µM | 1.63 µg/mL and 6.28 µM | 9 µg/mL and 34.7 µM | – | – | 99.5 | 100 | 99.5 |
| 120 to 122 °C | CCOC(=O)CCNC1=CC(=O)c2ccccc2C1=O [compound 8, Ethyl 3N-(1,4-dioxo-1,4-dihydronaphthalen-2-yl)propanoate] | – | – | – | – | – | – | – | – | – | – | – | 28.2 | 11.7 | 32.7 |
| 65 to 68 °C | CCOC(=O)[C@H](C)NC1=CC(=O)c2ccccc2C1=O [compound 9, Ethyl [(S) 2-(1,4-dioxo-1,4-dihydronaphthalen-2-ylamino)] propanoate] | 1.33 µg/mL and 4.86 µM | 1.18 µg/mL and 4.31 µM | 1.68 µg/mL and 6.13 µM | 1.74 µg/mL and 6.35 µM | 3.11 µg/mL and 11.4 µM | 1.88 µg/mL and 6.87 µM | 0.98 µg/mL and 3.58 µM | 2.62 µg/mL and 9.57 µM | 17.6 µg/mL and 64.3 µM | – | – | 75.4 | 100 | 75.1 |
| – | CCOC(=O)CCCNC1=CC(=O)c2ccccc2C1=O [compound 10, Ethyl 4-(1,4-dioxo-1,4-dihydronaphthalen-2-ylamino)butanoate] | – | – | – | – | – | – | – | – | – | – | – | 49.6 | 59.1 | 49.2 |
| – | O=C(O)CCCNC1=CC(=O)c2ccccc2C1=O [compound 11, 4-(1,4-Dioxo-1,4-dihydronaphthalen-2-ylamino)butanoic acid] | – | – | – | – | – | – | – | – | – | – | – | 61.4 | 11.1 | 61.2 |
